# Molecular target: mGluR3 (Homo sapiens, UniProt Q14832)
# Assay: HEK293T-mGluR3-Gqi5 Calcium Mobilization Assay
# Assay type: cell-based
# Settings: HEK293T-mGluR3-Gqi5 stable cell line; FLIPR Ca2+ fluorescence; with L-glutamate at EC20 concentration
# Method: II. Biological Assays HEK293T-mGluR3-Gqi5 Calcium Mobilization Assay Reagents: • Cells: HEK293T-mGluR3-Gqi5 Stable Cell Line (MultiSpan cat# CG1190) Culture Medium: • DMEM-GlutaMAX-1 (GIBCO #10566)+10% FBS (dialyzed & heat-inactivated, Hyclone cat# SH 30079.03), 2 mM sodium pyruvate (GIBCO #11360), 1 μg/ml puromycin (GIBCO #0399) and 250 ug/ml hygromycin (GIBCO #10687-010) HBSS (GIBCO #14025), add HEPES at 20 mM for a pH of 7.4 • 384 well cell plate: poly-D-lysine-coated, black/clear bottom microplates (Corning cat#3845) • Ca^2+ dye: FLIPR Ca-4 assay kit (Molecular Devices cat# R8142) • L-Glutamate (Sigma cat #2834) Cell Plating • Plate 8000 cells per well (1×10^5 cells/ml, in 80 μl) in a black, clear bottom, 384 well plate (Corning 3845). Incubate the cell plate for 30 minutes at RT and then incubate the cells 37° C., 5% CO2 for 16-24 hours before the assay. Ca^2+ Assay Using the FLIPR • Wash the cells with HBSS 3 times using the Bravo automated pipettor. The remaining volume of HBSS is 20 μl per well. • Add 20 μl of dye loading solution to each well and incubate the cells at 37° C., 5% CO2 for 1 hour. Prepare Compound Plate: • Serial dilute test compounds in DMSO at a 1:4 ratio, starting at al 0 mM concentration. Transfer 500 nl of the diluted compounds to a Matrix plate and add 30 μl of 37° C. HBSS, by Multidrop, to each well. The final starting concentration of the compounds is 33 uM. Prepare a solution of L-Glutamate in HBSS at 5× the EC20 concentration. Transfer to a 384 well Matrix plate using a Multidrop. The EC20 concentration is determined by a test plate before the screen. Assay: • Ca^2+ fluorescence is measured in the cells using the FLIPR Tetra (Molecular Devices). Following a baseline recording of the wells for 1 minute, add 10 ul of the diluted (5×) compounds to the cell plate and record for 3 minutes.
# Chain of mGluR3 (Q14832 23-879): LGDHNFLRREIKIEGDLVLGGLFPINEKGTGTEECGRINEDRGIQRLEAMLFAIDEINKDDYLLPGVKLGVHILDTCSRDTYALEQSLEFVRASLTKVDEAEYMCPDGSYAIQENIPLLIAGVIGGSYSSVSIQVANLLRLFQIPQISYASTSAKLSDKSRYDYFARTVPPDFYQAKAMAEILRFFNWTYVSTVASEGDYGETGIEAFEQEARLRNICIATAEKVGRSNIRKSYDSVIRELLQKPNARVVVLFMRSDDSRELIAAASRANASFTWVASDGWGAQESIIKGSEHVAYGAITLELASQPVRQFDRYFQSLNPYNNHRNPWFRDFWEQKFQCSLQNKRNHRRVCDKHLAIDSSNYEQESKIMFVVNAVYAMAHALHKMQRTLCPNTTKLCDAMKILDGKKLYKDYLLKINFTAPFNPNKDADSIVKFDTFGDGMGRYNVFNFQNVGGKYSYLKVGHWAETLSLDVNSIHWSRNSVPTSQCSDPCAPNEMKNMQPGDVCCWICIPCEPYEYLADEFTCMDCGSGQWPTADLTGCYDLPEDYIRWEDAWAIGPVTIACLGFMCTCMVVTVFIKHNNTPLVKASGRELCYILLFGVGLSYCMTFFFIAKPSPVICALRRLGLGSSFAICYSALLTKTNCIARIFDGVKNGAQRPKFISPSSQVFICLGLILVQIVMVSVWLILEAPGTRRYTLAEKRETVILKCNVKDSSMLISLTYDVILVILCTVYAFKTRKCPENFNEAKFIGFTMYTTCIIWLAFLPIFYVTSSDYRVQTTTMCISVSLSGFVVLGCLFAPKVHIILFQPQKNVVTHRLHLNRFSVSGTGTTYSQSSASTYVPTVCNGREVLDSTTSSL
row,EC50 [µM],SMILES
1,< 1,"CC(C)c1nc(N2CCOCC2)c(C#N)c2c1CCCC2 [Compound 1, 1-Isopropyl-3-morpholin-4-yl-5,6,7,8-tetrahydroisoquinoline-4-carbonitrile]"
2,1 to 10,CCc1nc(NCCN)c(C#N)c2c1CSC(C)(C)C2 [Compound 8]
3,1 to 10,CCc1nc(N2CCOCC2)c(C#N)c2c1CCCC2 [Compound 3]

# More lines, now with the values behind:
row,SMILES,EC50 [µM]
1,CCCc1nc(NCCN2CCOCC2)c(C#N)c2c1CCCC2 [Compound 5],1 to 10
2,CCCc1nc(NCCO)c(C#N)c2c1CCCC2 [Compound 6],1 to 10
3,CCc1nc(NCCCO)c(C#N)c2c1CCCC2 [Compound 7],1 to 10
4,CCCc1nc(N2CCOCC2)c(C#N)c2c1COC(C)(C)C2 [Compound 2],1 to 10
5,N#Cc1ccc(-c2ccccc2)nc1N1CCOCC1 [Compound 4],1 to 10

# Source: patent US10059671B2, “Positive allosteric modulators of mGluR3” (Merck Patent GmbH, priority 2013, dated 2018)
